According to US10344024B2, “Compounds as ROR gamma modulators” (Glenmark Pharmaceuticals S.A., priority 2015, dated 2019):

Biological target: T1, GST-tagged ROR gamma ligand binding domain (LBD) (Homo sapiens, UniProt P51449)
T1 construct: purchased Invitrogen
T1 sequence (P51449 269-508 limits assumed): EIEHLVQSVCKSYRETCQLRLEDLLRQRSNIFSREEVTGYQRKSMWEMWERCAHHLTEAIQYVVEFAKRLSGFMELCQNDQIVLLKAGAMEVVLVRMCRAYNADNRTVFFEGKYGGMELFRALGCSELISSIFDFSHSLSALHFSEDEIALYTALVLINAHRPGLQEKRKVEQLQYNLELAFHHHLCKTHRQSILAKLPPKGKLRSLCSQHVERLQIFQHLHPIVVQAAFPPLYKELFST
Assay: TR-FRET assay for ROR gamma (LanthaScreen co-activator peptide recruitment)
Type: biochemical
Details: for inhibition at 1 µM: compound concentration 1 μM; for inhibition at 1 µM / inhibition at 10 µM: TR-FRET ratio 520/495, percent of control; for inhibition at 10 µM: compound concentration 10 μM; for IC50: from dose response curve, nonlinear regression, read-out: IC50 range
Source text: The compounds described herein were screened for ROR gamma modulator activity using the TR-FRET assay (LanthaScreen™ available from Invitrogen of Carlsbad, Calif.) as described in JBC 2011, 286, 26: 22707-10; and Drug Metabolism and Disposition 2009, 37, 10: 2069-78.
Binding of the co-activator peptide, causes an increase in the TR-FRET signal while binding of an antagonist decreases the recruitment of the co-activator peptide, causing a decrease in the TR-FRET signal compared to control with no compound. The assay was performed using a two-step procedure, pre-incubation step with the compound followed by the detection step on addition of the anti-GST tagged terbium (Tb) and fluorescein tagged fluorophores as the acceptor.
Test compounds or reference compounds such as T0901317 (Calbiochem) were dissolved in dimethylsulfoxide (DMSO) to prepare 10.0 mM stock solutions and diluted to the desired concentration. The final concentration of DMSO in the reaction was 4% (v/v). The assay mixture was prepared by mixing 10 nM of the GST-tagged ROR gamma ligand binding domain (LBD) in the assay buffer containing 25 mM HEPES (pH 7.4), 100 mM NaCl, 5 mM DTT and 0.01% BSA with or without the desired concentration of the compound. The reaction was incubated at 22° C. for 1 hour. The pre-incubation step was terminated by addition of the detection mixture containing 300 nM Fluorescein-D22 co-activator peptide and 10 nM lantha screen Tb-anti GST antibody into the reaction mixture.
After shaking for 5 minutes the reaction was further incubated for 1 hour at room temperature and read at 4° C. on an Infinite F500 reader as per the kit instructions (Invitrogen). The inhibition of test compound was calculated based on the TR-FRET ratio of 520/495. The activity was calculated as a percent of control reaction. IC50 values were calculated from dose response curve by nonlinear regression analysis using GraphPad Prism software.

SMILES	inhibition at 1 µM [%]	inhibition at 10 µM [%]	IC50 [nM]
CCC(F)(F)c1ccc(CC(=O)Nc2ccc(-c3nccnc3-c3ccc(Cl)cc3)cc2F)cc1 [Example 26, N-(4-(3-(4-Chlorophenyl)pyrazin-2-yl)-2-fluorophenyl)-2-(4-(1,1-difluoropropyl)phenyl)acetamide]	71.9	79.6	100 to 500
CCC(F)(F)c1ccc(CC(=O)Nc2ccc(-c3nccnc3-c3ccc(OC)cc3)cc2)cc1 [Example 27, 2-(4-(1,1-Difluoropropyl)phenyl)-N-(4-(3-(4-methoxyphenyl)pyrazin-2-yl)phenyl)acetamide]	78.6	83.5	< 50
CCC(F)(F)c1ccc(CC(=O)Nc2ccc(-n3nc(C(F)(F)F)cc3-c3ccccc3Cl)cc2)cc1 [Example 29, N-(4-(5-(2-Chlorophenyl)-3-(trifluoromethyl)-1H-pyrazol-1-yl)phenyl)-2-(4-(1,1-difluoropropyl)phenyl)acetamide]	77.1	79.8	< 50
CCC(F)(F)c1ccc(CC(=O)Nc2ccc(-c3ncccc3-c3ccccc3Cl)cc2)cc1 [Example 30, N-(4-(3-(2-Chlorophenyl)pyridin-2-yl)phenyl)-2-(4-(1,1-difluoropropyl)phenyl)acetamide]	81.3	82.5	< 50
CCC(F)(F)c1ccc(CC(=O)Nc2ccc(-c3nccnc3-c3ccccc3C)cc2)cc1 [Example 31]	77.7	81.7	< 50
CCC(F)(F)c1ccc(CC(=O)Nc2ccc(-c3nccnc3N3CCN(C)CC3)cc2)cc1 [Example 32, 2-(4-(1,1-Difluoropropyl)phenyl)-N-(4-(3-(4-methylpiperazin-1-yl)pyrazin-2-yl)phenyl)acetamide]	15.3	65.1	–
CCN1CCN(c2nccnc2-c2ccc(NC(=O)Cc3ccc(C(F)(F)CC)cc3)cc2)CC1 [Example 33, 2-(4-(1,1-Difluoropropyl)phenyl)-N-(4-(3-(4-ethylpiperazin-1-yl)pyrazin-2-yl)phenyl)acetamide]	27.3	75.8	–
CCC(F)(F)c1ccc(CC(=O)Nc2ccc(-c3cccnc3-c3ccc(Cl)cc3)cc2)cc1 [Example 34, N-(4-(2-(4-Chlorophenyl)pyridin-3-yl)phenyl)-2-(4-(1,1-difluoropropyl)phenyl)acetamide]	57.9	66.8	–
CCC(F)(F)c1ccc(CC(=O)Nc2ccc(-c3cnccc3-c3ccc(Cl)cc3)cc2)cc1 [Example 35, N-(4-(4-(4-Chlorophenyl)pyridin-3-yl)phenyl)-2-(4-(1,1-difluoropropyl)phenyl)acetamide]	72.8	73.3	100 to 500
CCC(F)(F)c1ccc(CC(=O)Nc2ccc(-c3nccnc3N3C[C@@H](C)O[C@@H](C)C3)cc2)cc1 [Example 36, 2-(4-(1,1-Difluoropropyl)phenyl)-N-(4-(3-((25,6R)-2,6-dimethylmorpholino)pyrazin-2-yl)phenyl)acetamide]	2.6	8.3	–
CC(O)C(F)(F)c1ccc(CC(=O)Nc2ccc(-c3nccnc3-c3ccccc3Cl)cc2)cc1 (stereo not shown) [Example 37, N-(4-(3-(2-Chlorophenyl)pyrazin-2-yl)phenyl)-2-(4-(1,1-difluoro-2-hydroxypropyl)phenyl)acetamide]	71.1	73.5	< 50
CCC(F)(F)c1ccc(CC(=O)Nc2ccc(-n3nc(C)cc3-c3ccc(Cl)cc3Cl)cc2)cc1 [Example 38, N-(4-(5-(2,4-Dichlorophenyl)-3-methyl-1H-pyrazol-1-yl)phenyl)-2-(4-(1,1-difluoropropyl)phenyl)acetamide]	70.7	74.9	100 to 500
CC(O)C(F)(F)c1ccc(CC(=O)Nc2ccc(-c3nccnc3-c3ccc(F)cc3Cl)cc2)cc1 (stereo not shown) [Example 39, N-(4-(3-(2-Chloro-4-fluorophenyl)pyrazin-2-yl)phenyl)-2-(4-(1,1-difluoro-2-hydroxypropyl)phenyl)acetamide]	65.5	72.8	–
CCc1ccccc1-c1nccnc1-c1ccc(NC(=O)Cc2ccc(C(F)(F)C(C)O)cc2)cc1 (stereo not shown) [Example 40, 2-(4-(1,1-Difluoro-2-hydroxypropyl)phenyl)-N-(4-(3-(2-ethylphenyl)pyrazin-2-yl)phenyl)acetamide]	71.4	76.9	< 50
CCC(F)(F)c1ccc(CC(=O)Nc2ccc(-c3nccnc3N3CCN(CCOC)CC3)cc2)cc1 [Example 41, 2-(4-(1,1-Difluoropropyl)phenyl)-N-(4-(3(4-(2-methoxyethyl)piperazin-1-yl)pyrazin-2-yl)phenyl)acetamide]	4.2	48.7	–
CCC(F)(F)c1ccc(CC(=O)Nc2ccc(-c3nccnc3N3CCN(C(C)=O)CC3C)cc2)cc1 (stereo not shown) [Example 42, N-(4-(3-(4-Acetyl-2-methylpiperazin-1-yl)pyrazin-2-yl)phenyl)-2-(4-(1,1-difluoropropyl)phenyl)acetamide]	51.9	76.1	–
CCC(F)(F)c1ccc(CC(=O)Nc2ccc(-c3nccnc3-c3ccc(F)cc3C)cc2)cc1 [Example 44, 2-(4-(1,1-Difluoropropyl)phenyl)-N-(4-(3-(4-fluoro-2-methylphenyl)pyrazin-2-yl)phenyl)acetamide]	76.9	84.1	< 50
CCC(F)(F)c1ccc(CC(=O)Nc2ccc(-c3nccnc3-c3ccc(F)cc3Cl)cc2)cc1 [Example 45, N-(4-(3-(2-Chloro-4-fluorophenyl)pyrazin-2-yl)phenyl)-2-(4-(1,1-difluoropropyl)phenyl)acetamide]	81.1	80.8	< 50
CCC(F)(F)c1ccc(CC(=O)Nc2ccc(-c3ccncc3-c3ccc(Cl)cc3)cc2)cc1 [Example 46, N-(4-(3-(4-Chlorophenyl)pyridin-4-yl)phenyl)-2-(4-(1,1-difluoropropyl)phenyl)acetamide]	70	77.1	–
CCC(F)(F)c1ccc(CC(=O)Nc2ccc(-c3nccnc3-c3ccc(C)cc3C)cc2)cc1 [Example 47, 2-(4-(1,1-Difluoropropyl)phenyl)-N-(4-(3-(2,4-dimethylphenyl)pyrazin-2-yl)phenyl)acetamide]	82.3	82.3	< 50
CCC(F)(F)c1ccc(CC(=O)Nc2ccc(-c3nccnc3-c3ccc(C)cc3F)cc2)cc1 [Example 48, 2-(4-(1,1-Difluoropropyl)phenyl)-N-(4-(3-(2-fluoro-4-methylphenyl)pyrazin-2-yl)phenyl)acetamide]	79.2	84.1	< 50
CCC(F)(F)c1ccc(CC(=O)Nc2ccc(-c3nccc(=O)n3-c3ccc(F)cc3Cl)cc2)cc1 [Example 49, N-(4-(1-(2-Chloro-4-fluorophenyl)-6-oxo-1,6-dihydropyrimidin-2-yl)phenyl)-2-(4-(1,1-difluoropropyl)phenyl)acetamide]	84	88.8	< 50
CCC(F)(F)c1ccc(CC(=O)Nc2ccc(-c3nccnc3-c3ccc(Cl)cc3Cl)cc2)cc1 [Example 50, N-(4-(3-(2,4-Dichlorophenyl)pyrazin-2-yl)phenyl)-2-(4-(1,1-difluoropropyl)phenyl)acetamide]	83.2	83	< 50
Cc1ccc(-c2nccnc2-c2ccc(NC(=O)Cc3ccc(C(F)(F)C(C)O)cc3)cc2)c(C)c1 (stereo not shown) [Example 51, 2-(4-(1,1-Difluoro-2-hydroxypropyl)phenyl)-N-(4-(3-(2,4-dimethylphenyl)pyrazin-2-yl)phenyl)acetamide]	73.2	81	< 50
CCc1ccccc1-c1nccnc1-c1ccc(NC(=O)Cc2ccc(C(F)(F)[C@H](C)O)cc2)cc1 [Example 52, (S)-2-(4-(1,1-difluoro-2-hydroxypropyl)phenyl)-N-(4-(3-(2-ethylphenyl)pyrazin-2-yl)phenyl)acetamide]	78.6	84	< 50
